From ChEMBL document CHEMBL5528049, “Discovery of (4-Pyrazolyl)-2-aminopyrimidines as Potent and Selective Inhibitors of Cyclin-Dependent Kinase 2” (J Med Chem, 2024)
Values after ≈ are worked out from the molar mass of the structure shown.

Assays:
[1] = Intrinsic clearance in human liver microsomes at 1 uM measured upto 30 mins by LC/MS analysis; type: ADME, Microsome; conditions: read-out: CLH (converted)
[2] = molecular target: T1, Cyclin-dependent kinase 2 (Homo sapiens, UniProt P24941); experiment: Inhibition of CDK2 in human whole blood spiked with CCNE1-amplified human COV318 cells assessed as reduction in retinoblastoma protein phosphorylation at S780 residue incubated overnight by HTRF microplate reader; type: cell-based
[3] = molecular target: CDK6/cyclin D3 (Homo sapiens, UniProt Q00534); experiment: Inhibition of N-terminal GST-tagged human CDK6 (1 to 326 residues)/N-terminal 6-His fused human Cyclin D3 (1 to 292 residues) expressed in Sf9 insect cells incubated for 60 mins by HTRF assay
[4] = molecular target: Cyclin-dependent kinase 2/cyclin E1 (Homo sapiens, UniProt P24941); experiment: Inhibition of N-terminal GST-tagged full-length human CDK2(1 to 298 residues) /FLAG-tagged human Cyclin E1 (1 to 410 residues) expressed in baculovirus-infected Sf21 cells incubated for 60 mins in presence of ATP by HTRF assay
[5] = molecular target: Cyclin-dependent kinase 4/cyclin D1 (Homo sapiens, UniProt P11802); experiment: Inhibition of N-terminal GST-tagged human CDK4 (4 to 303 residues)/N-terminal GST-tagged human Cyclin D1 (4 to 295 residues) expressed in Sf9 insect cells incubated for 60 mins in presence of ATP by HTRF assay
[6] = molecular target: Cyclin-dependent kinase 1/cyclin B1 (Homo sapiens, UniProt P06493); experiment: Inhibition of N-terminal GST-tagged full length human CDK1 (1 to 297 residues)/human Cyclin B1 (1 to 433 residues) expressed in baculovirus infected Sf21 cells incubated for 60 mins in presence of ATP by HTRF assay
[7] = species: Homo sapiens; experiment: Selectivity index, ratio of IC50 for inhibition of N-terminal GST-tagged full length human CDK1 (1 to 297 residues)/human Cyclin B1 (1 to 433 residues) expressed in baculovirus infected Sf21 cells to IC50 for inhibition of N-terminal GST-tagged full-length human CDK2(1 to 298 residues) /FLAG-tagged human Cyclin E1 (1 to 410 residues) expressed in baculovirus-infected Sf21 cells
[8] = AUC in Sprague-Dawley rat at 3 mg/kg, po administered as cassette dose and measured upto 24 hrs by LC-MS/MS analysis; type: ADME, organism-based; conditions: in vivo
[9] = Cmax in Sprague-Dawley rat at 3 mg/kg, po administered as cassette dose and measured upto 24 hrs by LC-MS/MS analysis; type: ADME, organism-based; conditions: in vivo
[10] = Protein binding in human plasma assessed as free fraction incubated for 2 hrs by LC-MS/MS analysis; type: ADME, cell-free
[11] = Volume of distribution at steady state in cynomolgus monkey at 0.5 mg/kg, iv administered as cassette dose and measured upto 24 hrs by LC-MS/MS analysis; type: ADME, organism-based, Macaca fascicularis; conditions: in vivo, read-out: Vdss
[12] = Half-life in Sprague-Dawley rat at 0.43 mg/kg, iv administered as cassette dose and measured upto 24 hrs by LC-MS/MS analysis; type: ADME, organism-based; conditions: in vivo
[13] = Oral bioavailability in Sprague-Dawley rat at 3 mg/kg administered as cassette dose and measured upto 24 hrs by LC-MS/MS analysis; type: ADME, organism-based; conditions: in vivo
[14] = Apparent permeability from apical to basolateral side in human Caco-2 cells at 50 uM incubated for 120 mins by LCMS analysis
[15] = Volume of distribution at steady state in Sprague-Dawley rat at 0.43 mg/kg, iv administered as cassette dose and measured upto 24 hrs by LC-MS/MS analysis; type: ADME, organism-based; conditions: in vivo, read-out: Vdss
[16] = Hepatic blood flow in Sprague-Dawley rat at 0.43 mg/kg, iv administered as cassette dose and measured upto 24 hrs by LC-MS/MS analysis; type: ADME, organism-based; conditions: in vivo
[17] = AUC in cynomolgus monkey at 3 mg/kg, po administered as cassette dose and measured upto 24 hrs by LC-MS/MS analysis; type: ADME, organism-based, Macaca fascicularis; conditions: in vivo
[18] = Half-life in cynomolgus monkey at 0.5 mg/kg, iv administered as cassette dose and measured upto 24 hrs by LC-MS/MS analysis; type: ADME, organism-based, Macaca fascicularis; conditions: in vivo
[19] = Solubility of compound in SGF by HPLC analysis
[20] = Hepatic blood flow in cynomolgus monkey at 0.5 mg/kg, iv administered as cassette dose and measured upto 24 hrs by LC-MS/MS analysis; type: ADME, organism-based, Macaca fascicularis; conditions: in vivo
[21] = Oral bioavailability in cynomolgus monkey at 3 mg/kg administered as cassette dose and measured upto 24 hrs by LC-MS/MS analysis; type: ADME, organism-based, Macaca fascicularis; conditions: in vivo
[22] = Cmax in cynomolgus monkey at 3 mg/kg, po administered as cassette dose and measured upto 24 hrs by LC-MS/MS analysis; type: ADME, organism-based, Macaca fascicularis; conditions: in vivo
[23] = molecular target: Tyrosine-protein kinase JAK2 (Homo sapiens, UniProt O60674); experiment: Inhibition of JAK2 (unknown origin) incubated for 90 mins in presence of ATP by fluorescence microplate reader
[24] = Hepatic blood flow in Sprague-Dawley rat at 0.5 mg/kg, iv administered as cassette dose and measured upto 24 hrs by LC-MS/MS analysis; type: ADME, organism-based; conditions: in vivo
[25] = Volume of distribution at steady state in Sprague-Dawley rat at 0.5 mg/kg, iv administered as cassette dose and measured upto 24 hrs by LC-MS/MS analysis; type: ADME, organism-based; conditions: in vivo, read-out: Vdss
[26] = AUC in cynomolgus monkey at 1.5 mg/kg, po administered as cassette dose and measured upto 24 hrs by LC-MS/MS analysis; type: ADME, organism-based, Macaca fascicularis; conditions: in vivo
[27] = Cmax in cynomolgus monkey at 1.5 mg/kg, po administered as cassette dose and measured upto 24 hrs by LC-MS/MS analysis; type: ADME, organism-based, Macaca fascicularis; conditions: in vivo
[28] = Half-life in Sprague-Dawley rat at 0.5 mg/kg, iv administered as cassette dose and measured upto 24 hrs by LC-MS/MS analysis; type: ADME, organism-based; conditions: in vivo
[29] = Oral bioavailability in cynomolgus monkey at 1.5 mg/kg administered as cassette dose and measured upto 24 hrs by LC-MS/MS analysis; type: ADME, organism-based, Macaca fascicularis; conditions: in vivo
[30] = molecular target: CDK9/cyclin T1 (Homo sapiens, UniProt P50750); experiment: Inhibition of N-terminal GST-tagged full length human CDK9 (1 to 372 residues)/His-tagged human Cyclin T1 (1 to 726 residues) expressed in baculovirus infected Sf21 insect cells incubated for 60 mins by HTRF assay
[31] = species: Homo sapiens; experiment: Selectivity index, ratio of IC50 for inhibition of N-terminal GST-tagged full length human CDK9 (1 to 372 residues)/His-tagged human Cyclin T1 (1 to 726 residues) expressed in baculovirus infected Sf21 insect cells to IC50 for inhibition of N-terminal GST-tagged full-length human CDK2(1 to 298 residues) /FLAG-tagged human Cyclin E1 (1 to 410 residues) expressed in baculovirus-infected Sf21 cells
[32] = species: Homo sapiens; experiment: Selectivity index, ratio of IC50 for inhibition of C-terminal 6-His tagged recombinant full-length human CDK7/recombinant full-length human Cyclin H/N-terminal GST-tagged recombinant full-length human MAT1 expressed in baculovirus infected Sf21 insect cells to IC50 for inhibition of N-terminal …
[33] = molecular target: CDK7/Cyclin H/MNAT1 (Homo sapiens, UniProt P50613); experiment: Inhibition of C-terminal 6-His tagged recombinant full-length human CDK7/recombinant full-length human Cyclin H/N-terminal GST-tagged recombinant full-length human MAT1 expressed in baculovirus infected Sf21 insect cells incubated for 60 mins in presence of ATP by HTRF assay
[34] = molecular target: T1, Cyclin-dependent kinase 2; experiment: Inhibition of CDK2 in CCNE1-amplified human COV318 cells assessed as reduction in retinoblastoma protein phosphorylation at S780 residue incubated overnight by HTRF microplate reader; type: cell-based
[35] = species: Homo sapiens; experiment: (§1) Selectivity index, ratio of IC50 for inhibition of N-terminal GST-tagged human CDK4 (4 to 303 residues)/N-terminal GST-tagged human Cyclin D1 (4 to 295 residues) expressed in Sf9 insect cells to IC50 for inhibition of N-terminal GST-tagged full-length human CDK2(1 to 298 residues) /FLAG-tagged human Cyclin E1 (1 to 410 residues) expressed in baculovirus-infected Sf21 cells
[36] = species: Homo sapiens; experiment: as §1, with “human CDK6 (1” for “human CDK4 (4”, “to 326” for “to 303”, “residues)/N-terminal 6-His fused” for “residues)/N-terminal GST-tagged”, “Cyclin D3 (1” for “Cyclin D1 (4”, “to 292” for “to 295”

Structure (SMILES)	CLint scaled at 1 µM [1] [mL/min/kg]	IC50 [2] [nM]	IC50 [3] [nM]	IC50 [4] [nM]	IC50 [5] [nM]	IC50 [6] [nM]	Ratio IC50 [7]	fraction unbound at 2 h [10]	Papp A→B at 2 h, 50 µM [14] [×10⁻⁶ cm/s]	solubility [19] [µg/mL]	further results
CS(=O)(=O)N1CCC(Nc2ncc(C(F)(F)F)c(-c3cnn(-c4ccccc4Cl)c3)n2)CC1	16.7	823	24	0.56	10	90	160				
Cn1cnc(S(=O)(=O)N2CCC(Nc3ncc(C(F)(F)F)c(-c4cnn(CC(F)(F)F)c4)n3)CC2)c1	10							0.076	5.4	322 (≈ 598 µM)	AUC at 24 h [8]: 6.95 µM·h; Cmax [9]: 813 nM; Vd [11]: 0.37 L/kg; half-life [12]: 3.3 h; bioavailability [13]: 48%; Vd [15]: 1.4 L/kg; QH [16]: 12%; AUC at 24 h [17]: 7.59 µM·h; half-life [18]: 3.2 h; QH [20]: 4.3%; bioavailability [21]: 8%; Cmax [22]: 778 nM
Cc1cnc(Nc2ccc(NS(C)(=O)=O)cc2)nc1-c1cnn(C(CC#N)C2CCCC2)c1 (racemic)				607							IC50 [23]: < 1 nM
CS(=O)(=O)N1CCC(Nc2ncc(C(F)(F)F)c(-c3cnn(-c4ccccc4F)c3)n2)CC1	< 8.33	5110	31		14					46 (≈ 94.9 µM)	
Cn1cnc(S(=O)(=O)N2CCC(Nc3ncc(C#N)c(-c4cnn(CC(F)(F)F)c4)n3)CC2)c1	< 8.33								0.6	5 (≈ 10.1 µM)	
CS(=O)(=O)N1CCC(Nc2ncc(C(F)(F)F)c(-c3cnn(-c4ccc(C#N)cc4Cl)c3)n2)CC1	8.33							0.012			
N#Cc1cnc(NC2CCN(S(=O)(=O)c3ccccn3)CC2)nc1-c1cnn(CC(F)(F)F)c1	13.3							0.035	18	< 1	
Cn1cc(S(=O)(=O)N2CCC(Nc3ncc(C(F)(F)F)c(-c4cnn(CC(F)(F)F)c4)n3)CC2)cn1	8.33							0.059	19	< 1	
CS(=O)(=O)N1CCC(Nc2ncc(C(F)(F)F)c(-c3cnn(C4CCOCC4)c3)n2)CC1				3.2		407	130				IC50 [23]: > 10000 nM
CS(=O)(=O)N1CCC(Nc2ncc(Cl)c(-c3cnn(C4CCOCC4)c3)n2)CC1				16		1020					IC50 [23]: > 10000 nM
CC(C)(O)Cn1cc(-c2nc(NC3CCN(S(C)(=O)=O)CC3)ncc2C(F)(F)F)cn1	< 8.33	1210	160	0.42	37	63	150			842 (≈ 1820 µM)	
CN1CCC(n2cc(-c3nc(NC4CCN(S(C)(=O)=O)CC4)ncc3C(F)(F)F)cn2)CC1	11.7	708	153	6.1	20	174	29			> 400	
CNCc1ccc(-n2cc(-c3nc(NC4CCN(S(C)(=O)=O)CC4)ncc3C#N)cn2)c(Cl)c1	10							0.33			AUC at 24 h [8]: 3.5 µM·h; Cmax [9]: 412 nM; Vd [11]: 4.4 L/kg; bioavailability [13]: 69%; QH [24]: 36%; Vd [25]: 5.7 L/kg; AUC at 24 h [26]: 0.923 µM·h; Cmax [27]: 93 nM; half-life [18]: 6 h; QH [20]: 26%; half-life [28]: 3.8 h; bioavailability [29]: 20%
CNCc1ccc(-n2cc(-c3nc(NC4CCN(S(C)(=O)=O)CC4)ncc3C(F)(F)F)cn2)c(Cl)c1	11.7	263	58	0.53	11	43	81	0.078	3.3	94 (≈ 173 µM)	IC50 [30]: 3130 nM; Ratio IC50 [31]: 5900; Ratio IC50 [32]: 62; IC50 [33]: 33 nM; IC50 [34]: 25 nM; Ratio IC50 [35]: 21; Ratio IC50 [36]: 109
CC(C)(O)Cn1cc(-c2nc(NC3CCN(S(=O)(=O)C4CC4)CC3)ncc2C#N)cn1	< 8.33							0.35	4.3	41 (≈ 92 µM)	
CS(=O)(=O)N1CCC(Nc2ncc(C(F)(F)F)c(-c3cnn(CC(F)(F)F)c3)n2)CC1	< 8.33	709	22	1.8	11	205	110			3 (≈ 6.35 µM)	
CS(=O)(=O)N1CCC(Nc2ncc(C(F)(F)F)c(-c3cnn(C4CCCCC4)c3)n2)CC1	18.3	5050	10	2	3.2	257	130			11 (≈ 23.3 µM)	
